The source of these data is patent publication US20090209598A1, “Resorcine Derivatives and Their Use as Pesticides” (priority 2005, published 2009).

Holding throughout (test): whole plant or invertebrate
Format in all cases: in vivo

The test system of assay [1] is Tobacco Budworm (Heliothis virescens). The conditions noted are these: 144 h, eggs sprayed with 10 μl test solution, 6 days. Here is the method:
2. Activity Against Tobacco Budworm (Heliothis virescens)
The active compounds were formulated in 1:3 DMSO:water. 15 to 25 eggs were placed into microtiterplates filled with diet. The eggs were sprayed with 10 μl of the test solution, the plates were sealed with pierced foils and kept at 27-29° C. and 75-85% humidity under fluorescent light for 6 days. Mortality was assessed on the basis of the agility and of comparative feeding of the hatched larvae. Tests were replicated 2 times.

For assay [2], the system named is Boll Weevil (Anthonomus grandis). The following applies: eggs sprayed with 20 μl test solution, 3 to 5 days. Here is the method:
1. Activity Against Boll Weevil (Anthonomus grandis)
The active compounds were formulated in 1:3 DMSO:water. 10 to 15 eggs were placed into microtiterplates filled with 2% agar-agar in water and 300 ppm formaline. The eggs were sprayed with 20 μl of the test solution, the plates were sealed with pierced foils and kept at 24-26° C. and 75-85% humidity with a day/night cycle for 3 to 5 days. Mortality was assessed on the basis of the remaining unhatched eggs or larvae on the agar surface and/or quantity and depth of the digging channels caused by the hatched larvae. Tests were replicated 2 times.

Assay [3] concerns diamond back moth (plutella xylostella). The conditions noted are these: foliar, cabbage leaf disk dip, third instar larvae, after 72 h, read-out: mortality in comparison with untreated controls. Here is the method:
6. Activity against diamond back moth (plutella xylostella)
The active compounds were formulated in 50:50 acetone:water and 0.1% (vol/vol) Alkamuls EL 620 surfactant. A 6 cm leaf disk of cabbage leaves was dipped in the test solution for 3 seconds and allowed to air dry in a Petri plate lined with moist filter paper. The leaf disk was inoculated with 10 third instar larvae and kept at […] and 50-60% humidity for 3 days. Mortality was assessed after 72 h of treatment.

The subject of assay [4] is Southern Armyworm (Spodoptera Eridania), 2Nd Instar Larvae. The conditions noted are these: in Phaseolus lunatus, foliar, 96 h, leaf dip, at 4 days, read-out: mortality in comparison with untreated controls. Here is the method:
3. Activity Against Southern Armyworm (Spodoptera Eridania), 2Nd Instar Larvae
The active compounds were formulated for testing the activity against insects and arachnids as a 10.000 ppm solution in a mixture of 35% acetone and water, which was diluted with water, if needed.
A Sieva lima bean leaf was dipped in the test solution and allowed to dry. The leaf was then placed in a plastic perforated zip enclosure bag and ten 2nd instar larvae were added. At 4 days, observations are made of mortality and reduced feeding.

A value given as a limit tells only on which side of the number the result lay.

Take `FC(F)(F)c1ccc(OCCCCCCOc2cc(Cl)cc(OCC=C(Cl)Cl)c2)nc1` [I.2, 2-{6-[3-chloro-5-(3,3-dichloro-allyloxy)-phenoxy]-hexyloxy}-5-trifluoromethylpyridine]: the mortality at 2500 ppm in assay [1] and in assay [2] was more than 75% throughout. The mortality (commonly the share of the test organisms that died) at 300 ppm was not below 75% in assay [3] and not below 80% in assay [4].
